Assay results published in PubChem BioAssay AID248 (DTP/NCI, 2004).
Inconclusive results and toxic doses are left out.

Test system: L1210 leukemia ip in BDF1 mice, survival T/C
Assay: NCI In Vivo Anticancer Drug Screen. Data for tumor model L1210 Leukemia (intraperitoneal) in B6D2F1 (BDF1) mice
Details: endpoint: mean survival time, higher = longer survival
Outline: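 Ratio derived from survival: compound-dosed mice over vehicle-dosed mice, all bearing a transplantable tumor.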

[1] = dose: 100.0 mg/kg/injection, schedule: Q01DX001 (ip), vehicle: carboxymethylcellulose (CMC)
[2] = dose: 200.0 mg/kg/injection, schedule: Q01DX001 (ip), vehicle: carboxymethylcellulose (CMC)
[3] = dose: 400.0 mg/kg/injection, schedule: Q01DX001 (ip), vehicle: carboxymethylcellulose (CMC)
[4] = dose: 100.0 mg/kg/injection, schedule: Q01DX001 (ip), vehicle: saline
[5] = dose: 200.0 mg/kg/injection, schedule: Q01DX001 (ip), vehicle: saline
[6] = dose: 400.0 mg/kg/injection, schedule: Q01DX001 (ip), vehicle: saline
[7] = dose: 100.0 mg/kg/injection, schedule: Q04DX002 (ip), vehicle: Klucel (hydroxypropylcellulose) (HPC)
[8] = dose: 200.0 mg/kg/injection, schedule: Q04DX002 (ip), vehicle: Klucel (hydroxypropylcellulose) (HPC)
[9] = dose: 400.0 mg/kg/injection, schedule: Q04DX002 (ip), vehicle: Klucel (hydroxypropylcellulose) (HPC)
[10] = dose: 100.0 mg/kg/injection, schedule: Q01DX001 (ip), vehicle: other
[11] = dose: 200.0 mg/kg/injection, schedule: Q01DX001 (ip), vehicle: other
[12] = dose: 400.0 mg/kg/injection, schedule: Q01DX001 (ip), vehicle: other

SMILES: O=C(O)c1c(Cl)ccc([N+](=O)[O-])c1Cl
- T/C (dose: 100.0 mg/kg/injection, schedule: Q04DX003 (ip), vehicle: Klucel (hydroxypropylcellulose) (HPC)): 88 % of control
- T/C (dose: 200.0 mg/kg/injection, schedule: Q04DX003 (ip), vehicle: Klucel (hydroxypropylcellulose) (HPC)): 95 % of control
- T/C (dose: 400.0 mg/kg/injection, schedule: Q04DX003 (ip), vehicle: Klucel (hydroxypropylcellulose) (HPC)): 92 % of control

SMILES: NS(=O)(=O)c1cc2c(cc1Cl)NC(CSCC(F)(F)F)NS2(=O)=O (stereo not given)
- T/C [1]: 113 % of control
- T/C [2]: 108 % of control
- T/C [3]: 97 % of control

SMILES: O=C(CCCC(=O)NNC(=O)Nc1cccc(Cl)c1)NNC(=O)Nc1cccc(Cl)c1
- T/C (dose: 50.0 mg/kg/injection, schedule: Q01DX001 (ip), vehicle: saline): 96 % of control
- T/C [4]: 106 % of control
- T/C [5]: 106 % of control
- T/C [6]: 93 % of control

SMILES: CNCCc1cc2c(cc1C=O)OCO2
- T/C (dose: 75.0 mg/kg/injection, schedule: Q01DX001 (ip), vehicle: saline): 96 % of control
- T/C (dose: 150.0 mg/kg/injection, schedule: Q01DX001 (ip), vehicle: saline): 106 % of control

SMILES: CC(C)CCC(C)O[Si](C)c1ccccc1 (stereo not given)
- T/C (dose: 100.0 mg/kg/injection, schedule: Q04DX003 (ip), vehicle: saline with Tween-80): 97 % of control
- T/C (dose: 200.0 mg/kg/injection, schedule: Q04DX003 (ip), vehicle: saline with Tween-80): 99 % of control
- T/C (dose: 400.0 mg/kg/injection, schedule: Q04DX003 (ip), vehicle: saline with Tween-80): 101 % of control

SMILES: Nc1ccn(C2OC(CO)C(O)C2OP(=O)(O)OCC2OC(n3ccc(=O)[nH]c3=O)CC2O)c(=O)n1 (stereo not given)
- T/C (dose: 50.0 mg/kg/injection, schedule: Q01DX009 (ip), vehicle: saline): 153 % of control
- T/C (dose: 100.0 mg/kg/injection, schedule: Q01DX009 (ip), vehicle: saline): 166 % of control

SMILES: COc1cc(C(=O)N=Nc2c(O)[nH]c3ccc(Br)cc23)cc(OC)c1OC
- T/C [7]: 115 % of control
- T/C [8]: 104 % of control
- T/C [9]: 115 % of control

SMILES: CC1(C)C[N+](Cc2ccccc2)(Cc2ccccc2)C1
- T/C (dose: 0.78 mg/kg/injection, schedule: Q01DX009 (ip), vehicle: saline): 100 % of control
- T/C (dose: 1.56 mg/kg/injection, schedule: Q01DX009 (ip), vehicle: saline): 102 % of control
- T/C (dose: 3.12 mg/kg/injection, schedule: Q01DX009 (ip), vehicle: saline): 100 % of control
- T/C (dose: 6.25 mg/kg/injection, schedule: Q01DX009 (ip), vehicle: saline): 103 % of control
- T/C (dose: 12.5 mg/kg/injection, schedule: Q04DX003 (ip), vehicle: saline): 112 % of control
- T/C (dose: 25.0 mg/kg/injection, schedule: Q04DX003 (ip), vehicle: saline): 98 % of control
- T/C (dose: 50.0 mg/kg/injection, schedule: Q04DX003 (ip), vehicle: saline): 97 % of control

SMILES: O=C(O)c1cccc(C#Cc2ccccc2)c1
- T/C (dose: 100.0 mg/kg/injection, schedule: Q01DX001 (ip), vehicle: Klucel (hydroxypropylcellulose) (HPC)): 97 % of control
- T/C (dose: 200.0 mg/kg/injection, schedule: Q01DX001 (ip), vehicle: Klucel (hydroxypropylcellulose) (HPC)): 103 % of control

SMILES: C=CCOC(=O)N[C@H](CC(C)C)C(N)=O
- T/C [10]: 94 % of control
- T/C [11]: 110 % of control
- T/C [12]: 100 % of control

SMILES: CC(=O)Nc1c(F)c(F)c(N=Nc2ccccc2)c(F)c1F
- T/C [1]: 100 % of control
- T/C [2]: 102 % of control
- T/C [3]: 100 % of control

SMILES: CCCCOC(=S)Nc1ccc(S(=O)(=O)c2ccc(NC(=S)OCCCC)cc2)cc1
- T/C [4]: 108 % of control
- T/C [5]: 102 % of control
- T/C [6]: 104 % of control

SMILES: CC1(C(=O)c2ccccc2)OC1c1ccccc1 (stereo not given)
- T/C (dose: 100.0 mg/kg/injection, schedule: Q01DX009 (ip), vehicle: Klucel (hydroxypropylcellulose) (HPC)): 98 % of control
- T/C (dose: 200.0 mg/kg/injection, schedule: Q01DX009 (ip), vehicle: Klucel (hydroxypropylcellulose) (HPC)): 104 % of control
- T/C (dose: 400.0 mg/kg/injection, schedule: Q01DX009 (ip), vehicle: Klucel (hydroxypropylcellulose) (HPC)): 103 % of control

SMILES: CC(Br)C(=O)NC(C)C(=O)O (stereo not given)
- T/C (dose: 100.0 mg/kg/injection, schedule: Q01DX009 (ip), vehicle: saline with Tween-80): 89 % of control
- T/C (dose: 200.0 mg/kg/injection, schedule: Q01DX009 (ip), vehicle: saline with Tween-80): 86 % of control
- T/C (dose: 400.0 mg/kg/injection, schedule: Q01DX009 (ip), vehicle: saline with Tween-80): 91 % of control

SMILES: O=S(=O)(Cc1ccccc1)C(Br)Br
- T/C [10]: 106 % of control
- T/C [7]: 100 % of control
- T/C [11]: 101 % of control
- T/C [8]: 97 % of control
- T/C [12]: 101 % of control
- T/C [9]: 103 % of control
